In DBAASP:
Converted amounts (≈) assume the structure as drawn.

Key:
Assay in all cases: ≥ marks a high value that may be exact or a test limit, other limits are often not marked, values filed in µg/mL are converted to µM
[1] = test system: Candida albicans ATCC 2002
[2] = test system: Escherichia coli ATCC 25922
[3] = test system: Pseudomonas aeruginosa CMCCB 10104
[4] = test system: Staphylococcus aureus ATCC 25923

MIC [1] [µM] | MIC [2] [µM] | MIC [3] [µM] | MIC [4] [µM] | Compound
2.22 (≈ 8.5 µg/mL) | 2.22 (≈ 8.5 µg/mL) | 1.13 (≈ 4.3 µg/mL) | 1.13 (≈ 4.3 µg/mL) | CC[C@H](C)[C@H](NC(=O)CN)C(=O)N[C@@H](Cc1ccccc1)C(=O)N[C@H](C(=O)N[C@@H](CC(C)C)C(=O)N[C@H](C(=O)N[C@@H](CCCCN)C(=O)NCC(=O)N[C@@H](C)C(=O)N[C@@H](C)C(=O)N[C@@H](CCCCN)C(=O)N[C@@H](CC(C)C)C(=O)N[C@H](C(=O)NCC(=O)N[C@@H](CCCCN)C(=O)N[C@H](C(=O)N[C@H](C(=O)N[C@@H](C)C(=O)N[C@@H](CCCCN)C(=O)N[C@@H](CCC(=O)O)C(=O)N[C@@H](C)C(=O)NCC(=O)N[C@@H](CCCCN)C(=O)N[C@H](C(=O)NCC(=O)N[C@@H](CC(C)C)C(=O)N[C@@H](CCC(=O)O)C(=O)N[C@@H](CC(C)C)C(=O)N[C@@H](CCSC)C(=O)N[C@@H](C)C(=O)N[C@H]1CSSC[C@@H](C(=O)O)NC(=O)[C@H](CCC(N)=O)NC(=O)[C@H](CC(N)=O)NC(=O)[C@H]([C@@H](C)O)NC(=O)[C@H]([C@@H](C)CC)NC(=O)[C@H](CCCCN)NC1=O)[C@@H](C)O)C(C)C)[C@@H](C)O)[C@@H](C)CC)[C@@H](C)CC)[C@@H](C)O [GIFTLIKGAAKLIGKTVAKEAGKTGLELMACKITNQC]
0.435 (≈ 2.1 µg/mL) | 0.849 (≈ 4.1 µg/mL) | 1.7 (≈ 8.2 µg/mL) | 0.849 (≈ 4.1 µg/mL) | CC[C@H](C)[C@H](NC(=O)CN)C(=O)N[C@@H](Cc1ccccc1)C(=O)N[C@@H](CO)C(=O)N[C@@H](CCCCN)C(=O)N[C@H](C(=O)N[C@@H](CO)C(=O)NCC(=O)N[C@@H](CCCCN)C(=O)N[C@@H](C)C(=O)N[C@H](C(=O)N[C@@H](CCCCN)C(=O)N[C@@H](CC(N)=O)C(=O)N[C@@H](CC(C)C)C(=O)N[C@@H](Cc1ccccc1)C(=O)N[C@H](C(=O)N[C@@H](CCCCN)C(=O)NCC(=O)N[C@@H](C)C(=O)N[C@@H](CCCCN)C(=O)N[C@@H](CC(N)=O)C(=O)N[C@H](C(=O)NCC(=O)N[C@@H](CCCCN)C(=O)N[C@@H](CCC(=O)O)C(=O)N[C@H](C(=O)NCC(=O)N[C@@H](CCSC)C(=O)N[C@@H](CC(=O)O)C(=O)N[C@H](C(=O)N[C@H](C(=O)N[C@@H](CCCN=C(N)N)C(=O)N[C@H](C(=O)NCC(=O)N[C@@H](CCSC)C(=O)N[C@@H](CC(=O)O)C(=O)N[C@H](C(=O)N[C@H](C(=O)NCC(=O)N[C@H]1CSSC[C@@H](C(=O)O)NC(=O)[C@H](CCC(=O)O)NC(=O)CNC(=O)[C@H](CCCCN)NC(=O)[C@H]([C@@H](C)CC)NC(=O)[C@H](CCCCN)NC1=O)C(C)C)C(C)C)[C@@H](C)O)C(C)C)C(C)C)C(C)C)C(C)C)[C@@H](C)CC)[C@@H](C)CC)[C@@H](C)CC [GIFSKISGKAIKNLFIKGAKNVGKEVGMDVVRTGMDVVGCKIKGEC]
≥ 34.3 | > 34.3 | ≥ 34.3 | 34.3 (≈ 100 µg/mL) | CC[C@H](C)[C@H](N)C(=O)N1CCC[C@H]1C(=O)N[C@@H](Cc1c[nH]c2ccccc12)C(=O)N[C@@H](CCCCN)C(=O)N[C@@H](CC(C)C)C(=O)N1CCC[C@H]1C(=O)N[C@@H](C)C(=O)N[C@H](C(=O)N[C@@H](Cc1ccccc1)C(=O)N[C@@H](CCCN=C(N)N)C(=O)N1CCC[C@H]1C(=O)N[C@H](C(=O)N[C@@H](CCC(=O)O)C(=O)N[C@@H](CCCN=C(N)N)C(=O)N1CCC[C@H]1C(=O)N[C@@H](Cc1ccccc1)C(=O)N[C@@H](CO)C(=O)N[C@@H](CCCCN)C(=O)N1CCC[C@H]1C(=O)N[C@@H](Cc1ccccc1)C(=O)N[C@@H](CS)C(=O)N[C@@H](CCCN=C(N)N)C(=O)N[C@@H](CCCCN)C(=O)N[C@@H](CC(=O)O)C(=O)O)C(C)C)[C@@H](C)O [IPWKLPATFRPVERPFSKPFCRKD]
3.4 (≈ 11 µg/mL) | 1.7 (≈ 5.5 µg/mL) | 6.8 (≈ 22 µg/mL) | 3.4 (≈ 11 µg/mL) | CC[C@H](C)[C@H](NC(=O)[C@H](CC(C)C)NC(=O)[C@H](CC(C)C)NC(=O)[C@H](CC(=O)O)NC(=O)[C@H](CCCCN)NC(=O)[C@@H](NC(=O)[C@@H](NC(=O)CNC(=O)[C@H](CC(C)C)NC(=O)[C@@H](NC(=O)[C@@H](N)CO)C(C)C)[C@@H](C)O)C(C)C)C(=O)NCC(=O)N[C@@H](C)C(=O)NCC(=O)N[C@@H](CCCCN)C(=O)N[C@@H](CO)C(=O)N[C@@H](C)C(=O)N[C@@H](C)C(=O)N[C@@H](CCC(N)=O)C(=O)N[C@@H](CO)C(=O)N[C@H](C(=O)N[C@@H](CC(C)C)C(=O)N[C@H](C(=O)N[C@@H](C)C(=O)N[C@@H](CC(C)C)C(=O)N[C@@H](CO)C(=O)N[C@H]1CSSC[C@@H](C(=O)O)NC(=O)[C@H](CO)NC(=O)[C@H](CC(N)=O)NC(=O)[C@H](CO)NC(=O)[C@H](CC(C)C)NC(=O)[C@H](CCCCN)NC1=O)[C@@H](C)O)C(C)C [SVLGTVKDLLIGAGKSAAQSVLTALSCKLSNSC]
1.44 (≈ 5.1 µg/mL) | 5.74 (≈ 20.4 µg/mL) | 5.74 (≈ 20.4 µg/mL) | 2.87 (≈ 10.2 µg/mL) | CC[C@H](C)[C@H](NC(=O)[C@H](C)NC(=O)[C@H](CC(C)C)NC(=O)[C@H](CCC(=O)O)NC(=O)[C@H](CCCCN)NC(=O)[C@H](Cc1ccccc1)NC(=O)[C@@H](NC(=O)[C@H](CO)NC(=O)[C@H](CC(C)C)NC(=O)[C@H](Cc1ccccc1)NC(=O)[C@@H](N)CO)[C@@H](C)O)C(=O)N[C@@H](CC(N)=O)C(=O)N[C@@H](C)C(=O)N[C@@H](C)C(=O)N[C@@H](CCCCN)C(=O)N[C@@H](CC(N)=O)C(=O)N[C@@H](C)C(=O)NCC(=O)N[C@@H](CCC(N)=O)C(=O)N[C@@H](CO)C(=O)N[C@H](C(=O)N[C@@H](CC(C)C)C(=O)N[C@@H](Cc1cnc[nH]1)C(=O)N[C@H](C(=O)N[C@@H](CC(C)C)C(=O)N[C@@H](CO)C(=O)N[C@H]1CSSC[C@@H](C(=O)O)NC(=O)[C@H]([C@@H](C)O)NC(=O)[C@H](CCCCN)NC(=O)[C@H](CC(=O)O)NC(=O)[C@H](CC(C)C)NC(=O)[C@H](CCCCN)NC1=O)[C@@H](C)O)[C@@H](C)CC [SFLSTFKELAINAAKNAGQSILHTLSCKLDKTC]

Continued, compound first:

Compound | MIC [1] [µM] | MIC [2] [µM] | MIC [3] [µM] | MIC [4] [µM]
CC[C@H](C)[C@H](NC(=O)[C@H](CC(C)C)NC(=O)[C@@H](NC(=O)[C@H](Cc1ccccc1)NC(=O)[C@@H](NC(=O)[C@@H](N)CCC(N)=O)C(C)C)[C@@H](C)O)C(=O)N[C@@H](CCCCN)C(=O)NCC(=O)N[C@@H](C)C(=O)N[C@H](C(=O)N[C@@H](CCC(N)=O)C(=O)N[C@@H](CC(C)C)C(=O)N[C@H](C(=O)N[C@@H](CCCN=C(N)N)C(=O)N[C@@H](CCCCN)C(=O)N[C@H](C(=O)N[C@@H](CC(C)C)C(=O)NCC(=O)N[C@@H](CCC(=O)O)C(=O)N[C@@H](CCC(N)=O)C(=O)O)[C@@H](C)O)[C@@H](C)CC)[C@@H](C)O [QVFTLIKGATQLIRKTLGEQ] | 3.56 (≈ 8 µg/mL) | 1.78 (≈ 4 µg/mL) | 7.13 (≈ 16 µg/mL) | 3.56 (≈ 8 µg/mL)
CC[C@H](C)[C@H](NC(=O)CNC(=O)[C@H](CCCCN)NC(=O)CNC(=O)[C@H](C)NC(=O)[C@H](Cc1ccccc1)NC(=O)[C@H](CCCCN)NC(=O)[C@H](CO)NC(=O)[C@H](Cc1ccccc1)NC(=O)[C@H](CC(C)C)NC(=O)CN)C(=O)N[C@@H](CCCCN)C(=O)N[C@@H](CC(=O)O)C(=O)N[C@@H](CC(C)C)C(=O)N[C@H](C(=O)N[C@@H](Cc1ccccc1)C(=O)N[C@@H](CCCCN)C(=O)NCC(=O)N[C@H](C(=O)N[C@@H](CCCCN)C(=O)N[C@@H](Cc1cnc[nH]1)C(=O)N[C@H](C(=O)NCC(=O)N[C@@H](CCCCN)C(=O)N[C@@H](CCC(=O)O)C(=O)N[C@H](C(=O)NCC(=O)N[C@@H](CCSC)C(=O)N[C@@H](CC(=O)O)C(=O)N[C@H](C(=O)N[C@H](C(=O)N[C@@H](CCCN=C(N)N)C(=O)N[C@H](C(=O)NCC(=O)N[C@H](C(=O)N[C@@H](CC(=O)O)C(=O)N[C@H](C(=O)N[C@@H](C)C(=O)NCC(=O)N[C@H]1CSSC[C@@H](C(=O)O)NC(=O)[C@H](CCC(=O)O)NC(=O)CNC(=O)[C@H](CCCCN)NC(=O)[C@H]([C@@H](C)CC)NC(=O)[C@H](CCCCN)NC1=O)C(C)C)[C@@H](C)CC)[C@@H](C)O)[C@@H](C)CC)C(C)C)C(C)C)[C@@H](C)CC)C(C)C)[C@@H](C)CC [GLFSKFAGKGIKDLIFKGVKHIGKEVGMDVIRTGIDVAGCKIKGEC] | 0.555 (≈ 2.7 µg/mL) | 1.11 (≈ 5.4 µg/mL) | 0.555 (≈ 2.7 µg/mL) | 1.11 (≈ 5.4 µg/mL)
CC[C@H](C)[C@H](NC(=O)CN)C(=O)N[C@@H](Cc1ccccc1)C(=O)N[C@@H](CC(C)C)C(=O)N[C@@H](CCCCN)C(=O)N[C@H](C(=O)N[C@@H](CC(C)C)C(=O)NCC(=O)N[C@H](C(=O)NCC(=O)N[C@@H](CCCCN)C(=O)N[C@@H](CCCCN)C(=O)N[C@H](C(=O)N[C@@H](CC(C)C)C(=O)N[C@H]1CSSC[C@@H](C(=O)O)NC(=O)[C@H](CC(C)C)NC(=O)CNC(=O)[C@H](CO)NC(=O)[C@H](C(C)C)NC(=O)CNC1=O)C(C)C)C(C)C)C(C)C [GIFLKVLGVGKKVLCGVSGLC] | 5.17 (≈ 10.8 µg/mL) | 5.17 (≈ 10.8 µg/mL) | 10.3 (≈ 21.6 µg/mL) | 2.58 (≈ 5.39 µg/mL)
CC[C@H](C)[C@H](NC(=O)CNC(=O)[C@H](CCCCN)NC(=O)CNC(=O)[C@H](CO)NC(=O)[C@H](Cc1ccccc1)NC(=O)[C@H](CCCCN)NC(=O)[C@H](CO)NC(=O)[C@H](Cc1ccccc1)NC(=O)[C@H](CC(C)C)NC(=O)CN)C(=O)N[C@@H](CCCCN)C(=O)N[C@@H](CC(N)=O)C(=O)N[C@@H](Cc1ccccc1)C(=O)N[C@@H](CC(C)C)C(=O)N[C@H](C(=O)N[C@@H](CCCCN)C(=O)NCC(=O)N[C@H](C(=O)N[C@@H](CCCCN)C(=O)N[C@@H](Cc1cnc[nH]1)C(=O)N[C@H](C(=O)NCC(=O)N[C@@H](CCCCN)C(=O)N[C@@H](CCC(=O)O)C(=O)N[C@H](C(=O)NCC(=O)N[C@@H](CCSC)C(=O)N[C@@H](CC(=O)O)C(=O)N[C@H](C(=O)N[C@H](C(=O)N[C@@H](CCCN=C(N)N)C(=O)N[C@H](C(=O)NCC(=O)N[C@H](C(=O)N[C@@H](CC(=O)O)C(=O)N[C@H](C(=O)N[C@@H](C)C(=O)NCC(=O)N[C@H]1CSSC[C@@H](C(=O)O)NC(=O)[C@H](CCC(=O)O)NC(=O)CNC(=O)[C@H](CCCCN)NC(=O)[C@H]([C@@H](C)CC)NC(=O)[C@H](CCCCN)NC1=O)C(C)C)[C@@H](C)CC)[C@@H](C)O)[C@@H](C)CC)C(C)C)C(C)C)[C@@H](C)CC)C(C)C)[C@@H](C)CC [GLFSKFSGKGIKNFLIKGVKHIGKEVGMDVIRTGIDVAGCKIKGEC] | 0.266 (≈ 1.3 µg/mL) | 0.512 (≈ 2.5 µg/mL) | 0.512 (≈ 2.5 µg/mL) | 0.266 (≈ 1.3 µg/mL)
